In patent publication US20120029002A1, “BENZIMIDAZOLE AND PYRAZOLOPYRIDINE DERIVATIVES FOR TREATING AND/OR PREVENTING CARDIOVASCULAR DISEASES” (BAYER SCHERING PHARMA AKTIENGESELLSCHAFT, priority 2009, published 2012) one finds IC50 data, which are given here for four compounds.

The subject of this experiment is aorta rings. In words: Vasorelaxant effect in vitro (phenylephrine-contracted rabbit aorta rings). In kind it is cell-based, Rabbits. The settings on record: Oryctolagus cuniculus; concentration necessary to reduce the height of the phenylephrine-induced contraction of rabbit aorta rings by 50%; organ bath, 37° C., 0.1% DMSO. On the procedure:
B-1. Vasorelaxant effect in vitro
Rabbits are stunned by a blow to the neck and exsanguinated. The aorta is removed, freed from adhering tissue and divided into rings of a width of 1.5 mm The rings are placed individually under an initial tension in 5 ml organ baths with Krebs-Henseleit solution which is at 37° C., is gassed with carbogen and has the following composition (in each case mM): NaCl: 119; KCl: 4.8; CaCl2×2 H2O: 1; MgSO4×7 H2O: 1.4; KH2PO4: 1.2; NaHCO3: 25; glucose: 10. The force of contraction is detected with Statham UC2 cells, amplified and digitized via A/D converters (DAS-1802 HC, Keithley Instruments, Munich) and recorded in parallel on chart recorders. Contractions are induced by cumulatively adding increasing concentrations of phenylephrine to the bath. After several control cycles, the substance to be investigated is added in each further run in increasing dosage, and the height of the contraction achieved is compared with the height of the contraction reached in the last preceding one. The concentration necessary to reduce the height of the control value by 50% is calculated from this (IC50 value). The standard application volume is […] the proportion of DMSO in the bath solution corresponds to 0.1%.

As a reminder, the IC50 is the concentration at which inhibition is half-maximal. In turn, `Nc1nc(-n2nc(Sc3ccccc3F)c3ccccc32)nc(N)c1N` [Example 3, 2-{3-[(2-Fluorophenyl)sulphanyl]-1H-indazol-1-yl}pyrimidine-4,5,6-triamine] registered an IC50 of 2.15 µM.
The value for `CC(C)OC(=O)Nc1c(N)nc(-n2nc(Sc3ccccc3F)c3ncccc32)nc1N` [Example 9, Propan-2-yl (4,6-diamino-2-{3-[(2-fluorophenyl)sulphanyl]-1H-pyrazolo[4,3-b]pyridin-1-yl}pyrimidin-5-yl)carbamate] was 1.43 µM; that for `CC(C)OC(=O)Nc1c(N)nc(-n2nc(Sc3ccccc3F)c3ccccc32)nc1N` [Example 12, Propan-2-yl (4,6-diamino-2-[3-[(2-fluorophenyl)sulphanyl]-1H-indazol-1-yl]pyrimidin-5-yl)-carbamate] was 4.93 µM.
The compound `CC(C)OC(=O)Nc1c(N)nc(-n2nc(Oc3ccccc3F)c3ccccc32)nc1N` [Example 19, Propan-2-yl{4,6-diamino-2-[3-(2-fluorophenoxy)-1H-indazol-1-yl]pyrimidin-5-yl}carbamate] gave an IC50 of 5.64 µM.
